Assay results: patent US10065963B2 (Incyte Corporation, priority 2015, dated 2018)
Structures can show the parent of a compound that is named as a salt. Where two headings read alike, the source gives them in different places.

Tests used:
[1] = system: Phosphorylated Ribosomal Protein S6 (RPS6) in THP-1 cells; test: THP-1 RPS6 ELISA assay; type: cell-based, human; details: 10 nM MCP-1, read-out: PI3Kγ_THP1_RPS6_ELISA IC50
[2] = molecular target: PI3Kγ (p110γ) Recombinant Human Protein (Homo sapiens (Human), UniProt P48736); test: PI3K-γ scintillation proximity assay; type: biochemical; details: 2 μM ATP, 20 μM PIP2
[3] = molecular target: PI3Kδ (p110δ/p85α) Recombinant Human Protein (Homo sapiens (Human), UniProt O00329); test: PI3Kδ scintillation proximity assay; type: biochemical; details: 2 μM ATP, 20 μM PIP2
[4] = Homo sapiens, THP-1, THP-1 cells

PI3Kγ (p110γ) Recombinant Human Protein, sequence (P48736 whole entry): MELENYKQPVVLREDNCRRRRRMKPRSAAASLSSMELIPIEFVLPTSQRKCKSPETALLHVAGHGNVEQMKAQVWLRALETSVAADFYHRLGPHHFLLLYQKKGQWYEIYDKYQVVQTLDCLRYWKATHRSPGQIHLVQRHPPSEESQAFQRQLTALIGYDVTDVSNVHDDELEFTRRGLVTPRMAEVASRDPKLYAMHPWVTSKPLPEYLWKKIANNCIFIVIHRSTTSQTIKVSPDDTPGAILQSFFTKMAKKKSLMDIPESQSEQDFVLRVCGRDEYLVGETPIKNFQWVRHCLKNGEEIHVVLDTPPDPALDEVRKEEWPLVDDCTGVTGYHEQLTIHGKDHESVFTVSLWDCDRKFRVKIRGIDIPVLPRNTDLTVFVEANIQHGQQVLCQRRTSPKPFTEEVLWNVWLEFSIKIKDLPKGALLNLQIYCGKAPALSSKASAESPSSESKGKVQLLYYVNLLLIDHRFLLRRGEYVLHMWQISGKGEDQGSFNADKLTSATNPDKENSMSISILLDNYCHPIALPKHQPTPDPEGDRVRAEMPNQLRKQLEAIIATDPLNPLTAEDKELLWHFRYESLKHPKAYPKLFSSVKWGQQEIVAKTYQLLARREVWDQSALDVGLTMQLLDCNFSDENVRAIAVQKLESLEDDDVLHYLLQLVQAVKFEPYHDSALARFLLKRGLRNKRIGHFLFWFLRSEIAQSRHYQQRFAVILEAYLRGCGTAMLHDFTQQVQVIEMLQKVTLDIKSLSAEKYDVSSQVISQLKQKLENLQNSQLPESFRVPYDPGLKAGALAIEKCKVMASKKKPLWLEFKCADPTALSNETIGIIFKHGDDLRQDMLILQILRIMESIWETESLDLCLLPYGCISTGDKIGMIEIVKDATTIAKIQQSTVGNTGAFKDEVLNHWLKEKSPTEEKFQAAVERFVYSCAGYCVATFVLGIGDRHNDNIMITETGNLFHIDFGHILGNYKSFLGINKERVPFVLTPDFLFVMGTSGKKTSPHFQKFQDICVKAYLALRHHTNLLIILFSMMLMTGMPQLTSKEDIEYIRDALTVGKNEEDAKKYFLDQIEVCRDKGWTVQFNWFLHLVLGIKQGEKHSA
PI3Kδ (p110δ/p85α) Recombinant Human Protein, sequence (O00329 whole entry): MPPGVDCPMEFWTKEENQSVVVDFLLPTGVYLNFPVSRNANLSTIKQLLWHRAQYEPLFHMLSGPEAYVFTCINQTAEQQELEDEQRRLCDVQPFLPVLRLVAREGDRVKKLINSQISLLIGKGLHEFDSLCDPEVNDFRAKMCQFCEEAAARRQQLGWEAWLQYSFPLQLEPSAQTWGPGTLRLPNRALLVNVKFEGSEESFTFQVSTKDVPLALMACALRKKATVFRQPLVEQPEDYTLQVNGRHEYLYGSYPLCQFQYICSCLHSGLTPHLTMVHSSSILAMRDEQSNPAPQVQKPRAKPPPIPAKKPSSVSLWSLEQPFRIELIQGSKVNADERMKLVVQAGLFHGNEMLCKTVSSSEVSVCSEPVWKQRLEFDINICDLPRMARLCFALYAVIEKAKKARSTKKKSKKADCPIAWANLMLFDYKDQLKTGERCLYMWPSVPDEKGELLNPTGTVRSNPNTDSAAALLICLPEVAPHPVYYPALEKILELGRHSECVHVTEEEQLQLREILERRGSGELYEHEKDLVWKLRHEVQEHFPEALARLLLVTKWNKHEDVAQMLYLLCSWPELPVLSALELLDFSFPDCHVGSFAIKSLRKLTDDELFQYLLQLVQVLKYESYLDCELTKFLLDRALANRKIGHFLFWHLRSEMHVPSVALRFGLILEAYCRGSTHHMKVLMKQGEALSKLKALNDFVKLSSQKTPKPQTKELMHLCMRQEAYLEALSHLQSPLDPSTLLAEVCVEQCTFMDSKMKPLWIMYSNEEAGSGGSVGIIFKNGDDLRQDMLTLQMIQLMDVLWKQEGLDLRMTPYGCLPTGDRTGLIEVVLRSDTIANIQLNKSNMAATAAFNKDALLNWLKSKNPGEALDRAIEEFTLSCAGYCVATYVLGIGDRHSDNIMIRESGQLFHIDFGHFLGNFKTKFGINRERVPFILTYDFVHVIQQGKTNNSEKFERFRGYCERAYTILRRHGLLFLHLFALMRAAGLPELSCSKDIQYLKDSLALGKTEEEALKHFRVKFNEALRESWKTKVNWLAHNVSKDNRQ
PI3Kδ (p110δ/p85α) Recombinant Human Protein, sequence (P27986 whole entry partner): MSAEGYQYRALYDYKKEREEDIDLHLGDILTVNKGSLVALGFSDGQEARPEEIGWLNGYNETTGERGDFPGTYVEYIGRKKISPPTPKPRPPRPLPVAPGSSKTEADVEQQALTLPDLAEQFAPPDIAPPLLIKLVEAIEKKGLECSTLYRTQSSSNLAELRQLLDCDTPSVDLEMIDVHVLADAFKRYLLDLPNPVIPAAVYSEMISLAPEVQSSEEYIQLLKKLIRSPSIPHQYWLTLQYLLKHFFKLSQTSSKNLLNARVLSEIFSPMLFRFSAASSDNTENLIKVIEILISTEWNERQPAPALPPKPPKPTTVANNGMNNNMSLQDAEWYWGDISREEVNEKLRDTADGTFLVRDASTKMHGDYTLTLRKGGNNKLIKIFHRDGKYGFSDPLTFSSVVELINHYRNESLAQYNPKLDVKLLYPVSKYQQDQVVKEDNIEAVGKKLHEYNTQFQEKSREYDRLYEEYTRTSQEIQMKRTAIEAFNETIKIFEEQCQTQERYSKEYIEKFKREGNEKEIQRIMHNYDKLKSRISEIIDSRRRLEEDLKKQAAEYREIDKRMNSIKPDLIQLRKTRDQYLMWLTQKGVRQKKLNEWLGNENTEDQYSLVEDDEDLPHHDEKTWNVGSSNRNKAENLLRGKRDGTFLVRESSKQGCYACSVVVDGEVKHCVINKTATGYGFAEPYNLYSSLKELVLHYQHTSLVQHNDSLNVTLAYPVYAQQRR

In the case of `CC(NC(=O)c1c(N)nn2cccnc12)c1cc(Cl)c2cncn2c1N1CCC2(CC1)COC(=O)N2` (stereo not drawn) [Example 79, 2-Amino-N-{1-[8-chloro-5-(2-oxo-3-oxa-1,8-diazaspiro[4.5]dec-8-yl)imidazo[1,5-a]pyridin-6-yl]ethyl}pyrazolo[1,5-a]pyrimidine-3-carboxamide trifluoroacetate], the IC50 [1, 4] is reported as over 1000 nM, the IC50 [2] is reported as under 100 nM and the IC50 [3] is reported as under 500 nM.
With `Cc1nc(C#N)c2c(Cl)cc(C(C)NC(=O)c3c(N)nn4cccnc34)c(-c3ccccc3)n12` (racemic) [Example 125, 2-Amino-N-[1-(8-chloro-1-cyano-3-methyl-5-phenylimidazo[1,5-a]pyridin-6-yl)ethyl]pyrazolo[1,5-a]pyrimidine-3-carboxamide trifluoroacetate salt] the IC50 [1, 4] was under 500 nM, the IC50 [2] was under 100 nM and the IC50 [3] was under 500 nM.
Compound `CC(NC(=O)c1c(N)nn2cccnc12)c1cc(Cl)c2c(C#N)cnn2c1N1CCC[C@H](O)C1` (stereo partly drawn) [Example 61, 2-Amino-N-(1-(4-chloro-3-cyano-7-((S)-3-hydroxypiperidin-1-yl)pyrazolo[1,5-a]pyridin-6-yl)ethyl)pyrazolo[1,5-a]pyrimidine-3-carboxamide trifluoroacetate] has an IC50 [1, 4] of under 1000 nM, an IC50 [2] of under 100 nM and an IC50 [3] of under 2000 nM.
`Nc1nn2cccnc2c1C(=O)NCc1cc(Cl)c2c(Cl)ncn2c1N1CCCC1` [Example 172, 2-Amino-N-((1,8-dichloro-5-(pyrrolidin-1-yl)imidazo[1,5-a]pyridin-6-yl)methyl)pyrazolo[1,5-a]pyrimidine-3-carboxamidetrifluoroacetate salt] showed an IC50 [1, 4] of under 1000 nM, an IC50 [2] of under 100 nM and an IC50 [3] of under 500 nM.
With `CC(NC(=O)c1c(N)nn2cccnc12)c1cc(Cl)c2cncn2c1N1C[C@@H](O)C[C@H](O)C1` (stereo partly drawn) [Example 150, 2-Amino-N-(1-{8-chloro-5-[(3S,5S)-3,5-dihydroxypiperidin1-yl]imidazo[1,5-a]pyridin-6-yl}ethyl)pyrazol[1,5-a]pyrimidine-3-carboxamide trifluoroacetate salt] the IC50 ([1]; THP-1 cells) was under 500 nM, the IC50 [2] was under 100 nM and the IC50 [3] was under 100 nM.
Work on `CC(NC(=O)c1c(N)nn2cccnc12)c1cc(Cl)c2cn[nH]c2c1OCC(O)CO` (stereo not drawn) [Example 85, 2-Amino-N-(1-(4-chloro-7-(2,3-dihydroxypropoxy)-1H-indazol-6-yl)ethyl)pyrazolo[1,5-a]pyrimidine-3-carboxamide trifluoroacetate] yielded an IC50 [1, 4] of under 500 nM, an IC50 [2] of under 100 nM and an IC50 [3] of under 100 nM.
`CNC(=O)C1CCN(c2c(C(C)NC(=O)c3c(N)nn4cccnc34)cc(Cl)c3cn[nH]c23)C1` (single isomer, unassigned) [Example 103B, 2-Amino-N-[1-(4-chloro-7-{3-[(methylamino)carbonyl]pyrrolidin-1-yl}-2H-indazol-6-yl)ethyl]pyrazolo[1,5-a]pyrimidine-3-carboxamide trifluoroacetate] was tested, and the IC50 ([1]; THP-1 cells, trifluoroacetate) was under 500 nM, the IC50 [2] was under 100 nM and the IC50 [3] was under 500 nM.
For `CC(NC(=O)c1c(N)nn2cccnc12)c1cc(Cl)c2cncn2c1N1CCS(=N)(=O)CC1` (stereo not drawn) [Example 39, 2-Amino-N-(1-[8-chloro-5-(1-imino-1-oxidothiomorpholin-4-yl)imidazo[1,5-a]pyridin-6-yl]ethyl)pyrazolo[1,5-a]pyrimidine-3-carboxamide], the IC50 [1, 4] was under 500 nM, the IC50 [2] was under 100 nM and the IC50 [3] was under 100 nM.
With `CC(NC(=O)c1c(N)nn2cccnc12)c1cc(Cl)c2cncn2c1N1CCC(F)(F)CC1` (stereo not drawn) [Example 65, 2-Amino-N-{1-[8-chloro-5-(4,4-difluoropiperidin-1-yl)imidazo[1,5-a]pyridin-6-yl]ethyl}pyrazolo[1,5-a]pyrimidine-3-carboxamide bistrifluoroacetate] the IC50 [1, 4] was under 500 nM, the IC50 [2] was under 100 nM and the IC50 [3] was under 100 nM.
Compound `CC(NC(=O)c1c(N)nn2cccnc12)c1cc(Cl)c2cn[nH]c2c1N1CC[C@@H](NS(C)(=O)=O)C1` (stereo partly drawn) [Example 96B, 2-Amino-N-[1-(4-chloro-7-{(3R)-3-[(methylsulfonyl)amino]pyrrolidin-1-yl}-2H-indazol-6-yl)ethyl]pyrazolo[1,5-a]pyrimidine-3-carboxamide trifluoroacetate] has an IC50 [1, 4] of over 1000 nM, an IC50 [2] of under 100 nM and an IC50 [3] of under 100 nM.
`CC(NC(=O)c1c(N)nn2cccnc12)c1cc(Cl)c2cncn2c1N1CCC[C@H]1C` (stereo partly drawn) [Example 71A, 2-Amino-N-(1-{8-chloro-5-[(2R)-2-methylpyrrolidin-1-yl]imidazo[1,5-a]pyridin-6-yl}ethyl)pyrazolo[1,5-a]pyrimidine-3-carboxamide bistrifluoroacetate] gave an IC50 [1, 4] of under 1000 nM, an IC50 [2] of under 100 nM and an IC50 [3] of under 500 nM.
With `CC(NC(=O)c1c(N)nn2cccnc12)c1cc(Cl)c2c(Cl)ncn2c1N1CCC(C#N)CC1` (racemic) [Example 163, 2-Amino-N-{1-[1,8-dichloro-5-(4-cyanopiperidin-1-yl)imidazo[1,5-a]pyridin-6-yl]ethyl}pyrazolo[1,5-a]pyrimidine-3-carboxamide trifluoroacetate salt] the IC50 [1, 4] was under 500 nM, the IC50 [2] was under 100 nM and the IC50 [3] was under 100 nM.
With `CCOc1c(C(C)NC(=O)c2c(N)nn3ccc(-c4cncc(OC)c4)nc23)cc(Cl)c2c(Cl)n[nH]c12` (stereo not drawn) [Example 43, 2-Amino-N-(1-(3,4-dichloro-7-ethoxy-1H-indazol-6-yl)ethyl)-5-(5-methoxypyridin-3-yl)pyrazolo[1,5-a]pyrimidine-3-carboxamide trifluoroacetate salt] the IC50 [1, 4] was under 500 nM, the IC50 [2] was under 100 nM and the IC50 [3] was under 100 nM.
`CCC(NC(=O)c1c(N)nn2cccnc12)c1cc(Cl)c2cncn2c1N1CCS(=O)(=O)CC1` (stereo not drawn) [Example 179, 2-Amino-N-{1-[8-chloro-5-(1,1-dioxidothio-morpholin-4-yl)imidazo[1,5-a]pyridin-6-yl]propyl} pyrazolo[1,5-a] pyrimidine-3-carboxamide trifluoroacetate salt] showed an IC50 ([1]; THP-1 cells) of under 500 nM, an IC50 [2] of under 100 nM and an IC50 [3] of under 100 nM.
`CC(NC(=O)c1c(N)nn2cccnc12)c1cc(Cl)c2cncn2c1N1CC[C@@H](F)C1` (stereo partly drawn) [Example 75A, 2-Amino-N-(1-{8-chloro-5-[(3R)-3-fluoropyrrolidin-1-yl]imidazo[1,5-a]pyridin-6-yl}ethyl)pyrazolo[1,5-a]pyrimidine-3-carboxamide bistrifluoroacetate] was tested, and the IC50 [1, 4] was under 500 nM, the IC50 [2] was under 100 nM and the IC50 [3] was under 500 nM.
Compound `CC(NC(=O)c1c(N)nn2cccnc12)c1cc(Cl)c2cncn2c1N1CCC(O)(C(F)(F)F)CC1` (stereo not drawn) [Example 89, 2-Amino-N-(1-(8-chloro-5-(4-hydroxy-4-(trifluoromethyl)piperidin-1-yl)imidazo[1,5-a]pyridin-6-yl)ethyl)pyrazolo[1,5-a]pyrimidine-3-carboxamide trifluroacetate] has an IC50 ([1]; THP-1 cells) of under 500 nM, an IC50 [2] of under 100 nM and an IC50 [3] of under 500 nM.
`CC(NC(=O)c1c(N)nn2cccnc12)c1cc(Cl)c2c(C#N)n[nH]c2c1-c1ccccc1` (stereo not drawn) [Example 55, 2-Amino-N-(1-(4-chloro-3-cyano-7-phenyl-1H-indazol-6-yl)ethyl)pyrazolo[1,5-a]pyrimidine-3-carboxamide trifluoroacetate] showed an IC50 [1, 4] of over 1000 nM, an IC50 [2] of under 100 nM and an IC50 [3] of under 2000 nM.
Compound `CC(NC(=O)c1c(N)nn2cccnc12)c1cc(Cl)c2c(Cl)cnn2c1N1CCS(=O)(=O)C(C)C1` (stereo not drawn) [Example 112A, 2-Amino-N-{1-[3,4-dichloro-7-(2-methyl-1,1-dioxidothiomorpholin-4-yl)pyrazolo[1,5-a]pyridin-6-yl]ethyl}pyrazolo[1,5-a]pyrimidine-3-carboxamide trifluoroacetate] has an IC50 [1, 4] of under 500 nM, an IC50 [2] of under 100 nM and an IC50 [3] of under 100 nM.
`COC1CCN(c2c(C(C)NC(=O)c3c(N)nn4cccnc34)cc(Cl)c3cncn23)C1` (stereo not drawn) [Example 144, 2-Amino-N-{1-[8-chloro-5-(3-methoxypyrrolidin-1-yl)imidazo[1,5-a]pyridin-6-yl]ethyl}pyrazolo[1,5-a]pyrimidine-3-carboxamide trifluoroacetate salt] was tested, and the IC50 [1, 4] was under 500 nM, the IC50 [2] was under 100 nM and the IC50 [3] was under 500 nM.
Compound `CC(NC(=O)c1c(N)nn2cccnc12)c1cc(Cl)c2cncn2c1N1CCCC(O)(C(F)(F)F)C1` (single isomer, unassigned) [Example 78A, 2-Amino-N-(1-{8-chloro-5-[3-hydroxy-3-(trifluoromethyl)piperidin-1-yl]imidazo[1,5-a]pyridin-6-yl}ethyl)pyrazolo[1,5-a]pyrimidine-3-carboxamide trifluoroacetate] has an IC50 [1, 4] of under 500 nM, an IC50 [2] of under 100 nM and an IC50 [3] of under 500 nM.
`CC(NC(=O)c1c(N)nn2cccnc12)c1cc(Cl)c2cncn2c1N1CCCC(O)C1` (stereo not drawn) [Example 152, 2-Amino-N-(1-{8-chloro-5-[(3)-3-hydroxypiperidin-1-yl]imidazo[1,5-a]pyridin-6-yl}ethyl)pyrazolo[1,5-a]pyrimidine-3-carboxamide trifluoroacetate salt] showed an IC50 ([1]; THP-1 cells) of under 500 nM, an IC50 [2] of under 100 nM and an IC50 [3] of under 100 nM.
With `CC(NC(=O)c1c(N)nn2cccnc12)c1cc(Cl)c2cncn2c1N1C[C@H](O)[C@@H](F)C1` (mixture of isomers) [Example 35, 2-Amino-N-(1-(8-chloro-5-((3S,4S)-3-fluoro-4-hydroxypyrrolidin-1-yl)imidazo[1,5-a]pyridin-6-yl)ethyl)pyrazolo[1,5-a]pyrimidine-3-carboxamide trifluoroacetate salt] the IC50 [1, 4] was under 500 nM, the IC50 [2] was under 100 nM and the IC50 [3] was under 100 nM.
`CC(NC(=O)c1c(N)nn2cccnc12)c1cc(Cl)c2cncn2c1-c1cncc(C#N)c1` (racemic) [Example 137, 2-Amino-N-{1-[8-chloro-5-(5-cyanopyridin-3-yl)imidazo[1,5-a]pyridin-6-yl]ethyl}pyrazolo[1,5-a]pyrimidine-3-carboxamide trifluoroacetate salt] was tested, and the IC50 [1, 4] was under 500 nM, the IC50 [2] was under 100 nM and the IC50 [3] was under 100 nM.
